Test results as given in ChEMBL document CHEMBL3822409, “Synthesis and antitubercular activity of new 1,3,4-oxadiazoles bearing pyridyl and thiazolyl scaffolds” (Bioorg Med Chem Lett, 2016).
In brackets after ≈: the same amount, converted by molar mass.

Columns and labels:
[1] = Selectivity index, ratio of CC50 for human PANC1 cells to MIC for dormant stage of Mycobacterium bovis BCG ATCC 35734; type: toxicity, cell-based, PANC-1; settings: read-out: Selectivity Index
[2] = Selectivity index, ratio of CC50 for human HeLa cells to MIC for dormant stage of Mycobacterium bovis BCG ATCC 35734; type: toxicity, cell-based; settings: read-out: Selectivity Index
[3] = Selectivity index, ratio of CC50 for human HeLa cells to MIC for active stage of Mycobacterium bovis BCG ATCC 35734; type: toxicity, cell-based; settings: read-out: Selectivity Index
[4] = system: Mycobacterium tuberculosis; experiment: Antimycobacterial activity against active stage of Mycobacterium tuberculosis H37Ra ATCC 25177 measured on day 8 by XTT reduction menadione assay; type: functional, organism-based; settings: H37Ra ATCC 25177, 192 h
[5] = system: Mycobacterium tuberculosis; experiment: Antimycobacterial activity against dormant stage of Mycobacterium tuberculosis H37Ra ATCC 25177 measured on day 12 by XTT reduction menadione assay; type: functional, organism-based; settings: H37Ra ATCC 25177, 288 h
[6] = Cytotoxicity against human THP1 cells by MTT assay; type: cell-based, THP-1
[7] = Cytotoxicity against human HCT116 cells by MTT assay; type: cell-based, HCT-116
[8] = Cytotoxicity against human PANC1 cells by MTT assay; type: cell-based, PANC-1
[9] = Cytotoxicity against human HeLa cells by MTT assay; type: cell-based
[10] = Selectivity index, ratio of CC50 for human THP1 cells to MIC for active stage of Mycobacterium bovis BCG ATCC 35734; type: toxicity, cell-based, THP-1; settings: read-out: Selectivity Index
[11] = Selectivity index, ratio of CC50 for human HCT116 cells to MIC for active stage of Mycobacterium bovis BCG ATCC 35734; type: toxicity, cell-based, HCT-116; settings: read-out: Selectivity Index
[12] = Selectivity index, ratio of CC50 for human PANC1 cells to MIC for active stage of Mycobacterium bovis BCG ATCC 35734; type: toxicity, cell-based, PANC-1; settings: read-out: Selectivity Index
[13] = Selectivity index, ratio of CC50 for human THP1 cells to MIC for dormant stage of Mycobacterium bovis BCG ATCC 35734; type: toxicity, cell-based, THP-1; settings: read-out: Selectivity Index
[14] = Selectivity index, ratio of CC50 for human HCT116 cells to MIC for dormant stage of Mycobacterium bovis BCG ATCC 35734; type: toxicity, cell-based, HCT-116; settings: read-out: Selectivity Index

Row | SMILES | selectivity ratio [1] | selectivity ratio [2] | selectivity ratio [3] | IC50 [4] [µg/mL] | MIC [4] [µg/mL] | IC50 [5] [µg/mL] | MIC [5] [µg/mL] | CC50 [6] [µg/mL] | CC50 [7] [µg/mL] | CC50 [8] [µg/mL] | CC50 [9] [µg/mL] | selectivity ratio [10] | selectivity ratio [11] | selectivity ratio [12] | selectivity ratio [13] | selectivity ratio [14]
1 | Cc1nc(-c2cccnc2)sc1-c1nnc(-c2ccccc2)o1 | 3 | 3 | 3 | > 30 | > 30 | > 30 | > 30 | > 100 | > 100 | > 100 | > 100 | 3 | 3 | 3 | 3 | 3
2 | Cc1nc(-c2cccnc2)sc1-c1nnc(-c2ccc(O)cc2)o1 | 3 | 3 | 3 | > 30 | > 30 | > 30 | > 30 | > 100 | > 100 | > 100 | > 100 | 3 | 3 | 3 | 3 | 3
3 | Cc1nc(-c2cccnc2)sc1-c1nnc(-c2ccc([N+](=O)[O-])cc2)o1 | 3 | 3 | 3 | > 30 | > 30 | > 30 | > 30 | > 100 | > 100 | > 100 | > 100 | 3 | 3 | 3 | 3 | 3
4 | Cc1nc(-c2cccnc2)sc1-c1nnc(-c2cccc(Cl)c2Cl)o1 | 3 | 3 | 3 | > 30 | > 30 | > 30 | > 30 | > 100 | > 100 | > 100 | > 100 | 3 | 3 | 3 | 3 | 3
5 | COc1ccccc1-c1nnc(-c2sc(-c3cccnc3)nc2C)o1 | 25 | 25 | 38 | > 30 | > 30 | > 30 | > 30 | > 100 | > 100 | > 100 | > 100 | 38 | 38 | 38 | 25 | 25
6 | Cc1ccc(-c2nnc(-c3sc(-c4cccnc4)nc3C)o2)cc1 | 3 | 3 | 3 | > 30 | > 30 | > 30 | > 30 | > 100 | > 100 | > 100 | > 100 | 3 | 3 | 3 | 3 | 3
7 | Cc1nc(-c2cccnc2)sc1-c1nnc(-c2ccncc2)o1 | 2 | 2 | 2 | > 30 | > 30 | > 30 | > 30 | > 100 | > 100 | > 100 | > 100 | 2 | 2 | 2 | 2 | 2
8 | Cc1ccccc1-c1nnc(-c2sc(-c3cccnc3)nc2C)o1 | 20 | 20 | 17 | > 30 | > 30 | > 30 | > 30 | > 100 | > 100 | > 100 | > 100 | 17 | 17 | 17 | 20 | 20
9 | Cc1nc(-c2cccnc2)sc1-c1nnc(-c2ccccc2Cl)o1 | 21 | 21 | 19 | > 30 | > 30 | > 30 | > 30 | > 100 | > 100 | > 100 | > 100 | 19 | 19 | 19 | 21 | 21
10 | Cc1cccc(-c2nnc(-c3sc(-c4cccnc4)nc3C)o2)c1 | 3 | 3 | 3 | > 30 | > 30 | > 30 | > 30 | > 100 | > 100 | > 100 | > 100 | 3 | 3 | 3 | 3 | 3
11 | Cc1nc(-c2cccnc2)sc1-c1nnc(-c2ccc(Br)cc2)o1 | 3 | 3 | 3 | > 30 | > 30 | > 30 | > 30 | > 100 | > 100 | > 100 | > 100 | 3 | 3 | 3 | 3 | 3
12 | Cc1nc(-c2cccnc2)sc1-c1nnc(Cc2ccccc2)o1 | 10 | 10 | 9 | > 30 | > 30 | > 30 | > 30 | > 100 | > 100 | > 100 | > 100 | 9 | 9 | 9 | 10 | 10
13 | Cc1nc(-c2cccnc2)sc1-c1nnc(-c2cccnc2)o1 | 1 | 1 | 2 | > 30 | > 30 | > 30 | > 30 | > 100 | > 100 | > 100 | > 100 | 2 | 2 | 2 | 1 | 1
14 | Cc1nc(-c2cccnc2)sc1-c1nnc(-c2ccccc2[N+](=O)[O-])o1 | 17 | 17 | 39 | > 30 | > 30 | > 30 | > 30 | > 100 | > 100 | > 100 | > 100 | 39 | 39 | 39 | 17 | 17
15 | Cc1nc(-c2cccnc2)sc1-c1nnc(-c2ccc(Cl)cc2)o1 | 3 | 3 | 3 | > 30 | > 30 | > 30 | > 30 | > 100 | > 100 | > 100 | > 100 | 3 | 3 | 3 | 3 | 3
16 | CC(=O)O[C@H]1C(=O)[C@@]2(C)[C@H]([C@H](OC(=O)c3ccccc3)[C@]3(O)C[C@H](OC(=O)[C@H](O)[C@@H](NC(=O)c4ccccc4)c4ccccc4)C(C)=C1C3(C)C)[C@]1(OC(C)=O)CO[C@@H]1C[C@@H]2O [PACLITAXEL] |  |  |  |  |  |  |  | 0.137 (≈ 0.161 µM) | 1.85 (≈ 2.17 µM) | 0.128 (≈ 0.15 µM) | 0.0048 (≈ 0.00562 µM) |  |  |  |  | 
17 | CO[C@H]1/C=C/O[C@@]2(C)Oc3c(C)c(O)c4c(O)c(c(/C=N/N5CCN(C)CC5)c(O)c4c3C2=O)NC(=O)/C(C)=C\C=C\[C@H](C)[C@H](O)[C@@H](C)[C@@H](O)[C@@H](C)[C@H](OC(C)=O)[C@@H]1C [RIFAMPIN] | 714 | 714 | 1250 |  | 0.02 (≈ 0.0243 µM) | 0.0024 (≈ 0.00292 µM) | 0.03 (≈ 0.0365 µM) | > 100 | > 100 | > 100 | > 100 | 1250 | 1250 | 1250 | 714 | 714
